Experimental data taken from article PMC6222706, “Evaluation of the Antioxidant and Neuroprotectant Activities of New Asymmetrical 1,3-Diketones” (Molecules : A Journal of Synthetic Chemistry and Natural …, 2018).
Values after ≈ are worked out from the molar mass of the structure shown.

Columns and labels:
[1] = ABTS radical scavenging assay; format: biochemical; details: for IC50: 30 min incubation, EtOH, absorbance at 734 nm; for ABTS-TEAC100: Trolox Equivalent Antioxidant Capacity vs 100 µM solution of the substance, from ABTS assay
Procedure: ABTS^+ radical was produced by reacting 2,2′-azino-bis-3-ethylbenzthiazoline-6-sulphonic acid (ABTS) 7 mM with K2S2O8 2.45 mM, both reactants dissolved in water, and at the volume ratio of 1:1. The mixture was stored in the dark at room temperature for 16 h. The ABTS^+ solution was diluted to give an absorbance of 0.750 ± 0.025 at 734 nm in EtOH. All the compounds tested were dissolved in EtOH. 150 µL of each compound solution was added to the wells of the 96-well plate, followed by the addition of 50 µL of the ABTS^+ radical solution. Final compound concentrations tested were 0, 5, 10, 20, 50, 100, 150, 200 µM. The absorbance change at 734 nm was recorded after 30 min incubation in the dark, and the percentage of radical scavenging was calculated for each concentration relative to a blank containing no scavenger. The degree of decolorization was calculated as the percentage reduction of absorbance. The ABTS^+ radical scavenging activity was calculated as follows: Percentage ABTS^+ radical scavenging activity = {1 − [As/Ac]} × 100(1) where As is the absorbance of the ABTS^+ radical solution containing samples and Ac the absorbance of the control solution without antioxidant. The percentages of ABTS^+ radical reduced were plotted against compound concentration. Trolox was used as a reference antioxidant. All the assays were carried out three times by quadruplicate for each compound.

[2] = Cytotoxicity in SH-SY5Y cells (MTT); format: cell-based; details: human, SH-SY5Y neuronal cells, concentration reducing cell viability to 50% of control
Procedure: So, to study the neuroprotectant potential of β-diketones in the SH-SY5Y cell line, we firstly need to determine their cytotoxicity in the same cellular model. […] In addition to that, within each series, the introduction of a second fluorine atom in the left-hand side phenyl ring decreases also the cytotoxicity.
SH-SY5Y cells were seeded into 96-well plates at a density of 5 × 10^3 cells/well and grown in the incubator for 24 h. All compounds tested were dissolved and eventually further diluted in dimethylsulfoxide (DMSO). After overnight incubation, the cells were treated with different test concentrations (5, 10, 20, 50, 100, 150, 200 µM) in a final volume of 200 µL with four replicates each. […] Cell proliferation or viability was measured using the 3-(4,5-dimethylthiazol-2-yl)-2,5-diphenyl tetrazolium bromide (MTT) assay. After 24 h, 20 µL of MTT (5 mg/mL) was added to each well and the plate was incubated at 37 °C in the dark for 2 h. Supernatants were removed and the formazan crystals were solubilized in DMSO (200 µL/well), under 10 min shaking at room temperature. The reduction of MTT was quantified by absorbance at 570 nm Varioskan microplate reader (Thermo Fisher Scientific, Vantaa, Finland). Effects of the test compounds on cell viability were calculated using cells treated with vehicle as control. The data were subjected to linear regression analysis and the regression lines were plotted for the best fit. The IC50 (inhibition of cell viability) concentrations were calculated using the respective dose-response curves.

[3] = FRAP (Ferric Reducing Antioxidant Power) assay; format: biochemical; details: for FRAP-TEAC100: Trolox Equivalent Antioxidant Capacity vs 100 µM solution of the substance, from FRAP assay; for FRAP Assay (%) at 100 µM / FRAP Assay (%) at 200 µM: 30 min, 593 nm
Procedure: The assay was carried out according to the method of Benzie et al. with slight modifications, in a 96-well microplate. FRAP reagent was prepared by mixing 10 mL of 300 mM acetate buffer with 1 mL of 10 mM 2,4,6-tripyridyl-S-triazine (TPTZ) in HCl 40 mM and 1mL of FeCl3·6H2O 20 mM. Firstly, 190 µL of the FRAP reagent were added to all wells of the 96-well plate, followed by the addition to the well of 10 µL of the test compounds dissolved in Ethanol to reach the final concentrations assayed (0, 5, 10, 20, 50, 100, 150, 200 µM). After 30 min incubation in the dark, the absorbance was read at 593 nm. Trolox was used as assay control. Three different assays were carried out by quadruplicate for each compound.

SH-SY5Y cells [4] = test: SH-SY5Y neuroprotection assay against H2O2 (MTT); format: cell-based, human; details: compound 5-50 µM for 24 h, then 200 µM H2O2 for 24 h
Procedure: For neuroprotection experiments, SH-SY5Y cells were treated with test compound at different concentrations (5, 10, 20, 30, 40, and 50 µM) for 24 h. After the incubation period, cells were exposed to H2O2 200 µM for 24 h. At the end of the treatment, cell viability was measure with MTT.
Compound neuroprotection under H2O2-induced oxidative stress was assessed by MTT assay. Briefly, SH-SY5Y were seeded into 96-well plates at a density of 3 × 10^3 cells/well and grown in the incubator for 24 h. Cells were pretreated for 24 h with different compound concentrations (5, 10, 20, 30, 40, 50 µM). After the treatment period, cells were exposed to 200 µM H2O2 for 24 h. Cell viability was measured with MTT following the same procedure described above. Cell viability was expressed as the percentage of the control value (cells without treatment with H2O2).

[5] = Kinetic solubility by UV spectrometry in 10 mM PBS; format: physicochemical; details: 10 mM phosphate buffered saline, aqueous buffer, kinetic from dmso stock
Procedure: Among the most important physicochemical parameters in drug-discovery, solubility and chemical stability in aqueous media are the determinants for non-toxic and brain-permeable drug-like compounds with good bioavailability. So, compounds with good aqueous solubility are the best candidates for drug-discovery progression. […] The assays were performed at room temperature, in 10 mM Phosphate Buffered Saline (PBS) from compound stocks in DMSO at 20 mM concentration.
A modified protocol was used from that described by Hoelke et al. for the determination of the kinetic solubility from DMSO compound solutions. A compound calibration curve (compound concentration vs. UV absorption) was prepared on a 48 well plate for each compound with concentrations in the range of 10 µM to […]. Each compound dilution was carried out by pipetting defined volumes of a 20 mM stock compound solution in DMSO into the wells and adding PBS 10 mM to reach a final volume of 500 µL/well. The final amount of DMSO per well was 2%. For the lower compound concentrations, an additional volume of DMSO was added into each well to reach the 2% of DMSO. Then, 200 µL of each dilution was transferred to a new 96 well plate for the measurement of the UV-spectra. One well in each row was left without compound as a blank and its UV absorbance was used as an offset correction. The experiments were carried out by duplicate.
(§1) In parallel compound saturation solutions were obtained and filtered from 20 mM compound stock in DMSO. So, 10 µL of 20 mM stock solution were dispensed to 190 µL of PBS 10 mM. The solutions were mixed, shaken in a microplate shaker for two hours, and then 160 µL of each solution were filtered and transferred to a new well plate for UV absorption measure. The compound stability in PBS 10 mM was determined at 24, 48 and 72 h with solutions prepared as those for the compound calibration curve.
Measurement of the UV-spectra was performed using a Varioskan microplate reader and spectra were taken in the range of 270–600 nm. Spectral bandwidth was set to 5 nm and the data pint interval was 10 nm. […]

[6] = Chemical stability in 10 mM PBS; format: physicochemical; details: 6b, 7b at 400 µM, curcumin at 50 µM
Procedure: It is also important to know compound integrity at those concentrations used in biological assays, and for that, the chemical stability was determined in 10 mM PBS after 6 h, 24 h and 48 h.
as §1

[7] = DPPH radical scavenging assay; format: biochemical; details: antioxidant concentration that decreases initial DPPH^• concentration by 50%; 30 min, 517 nm
Procedure: The assay was performed in a 96-well microplate. A 0.2 mM solution of 2,2-diphenyl-1-picryl-hydrazyl-hydrate (DPPH) in ethanol was prepared. All the compounds tested were dissolved in EtOH. Firstly, 150 µL of each compound solution was added to the wells of the 96-well plate, followed by the addition of 50 µL of the DPPH solution. Final compound concentrations tested were 0, 5, 10, 20, 50, 100, 150, 200 µM. The change in absorbance at 517 nm was measured after 30 min incubation in the dark. The free radical scavenging activity was calculated as inhibition using the following Equation (2): Percentage DPPH radical scavenging activity = {1 − [As/Ac]} × 100(2) where As is the absorbance of the DPPH solution containing samples and Ac the absorbance of the control solution without antioxidant but with DPPH. The percentages of DPPH reduced were plotted against compound concentration. The experiment was also conducted using Trolox as reference antioxidant. Assays were performed three times by quadruplicate for each compound.

SH-SY5Y cells [8] = test: Mitochondrial membrane potential by flow cytometry (JC-1) in SH-SY5Y cells under H2O2; format: cell-based, human; details: 400 µM H2O2, no compound
Procedure: To confirm this MMP recovery results, flow cytometry experiments were carried out with compound 7b and SH-SY5Y cells. Cells were treated with 7b for 24 h and then were exposed to 400 µM H2O2 for 4 h. JC-1 was used as fluorescence indicator of MMP state. In flow cytometry studies of MMP, JC-1 is excited at 488 nm wavelength. Both JC-1 aggregates and monomers show green fluorescence (peak emission at 527 nm) measured in the FL1 channel. […] Thus, healthy non-apoptotic cells are detected in both FL1 and FL2 channels, while cells with disrupted mitochondrial function show fluorescence in FL1 channel but reduced FL2 intensity. […] From these flow cytometry experiments, we can confirm that after compound 7b treatment there is a significant MMP recovery in SH-SY5Y cells under oxidative stress pressure.
For MMP flow cytometry studies, 10^5 SH-SY5Y cells were seeded in 6 well plates. After 24 h, cells were treated with test compound and incubated for other 24 h. After the treatment period, cells were exposed to H2O2 for 4 h. Then, cells were washed twice with Hanks buffer and stained with 5 µM JC-1 in culture media in dark, in a CO2 incubator at 37 °C for 20 min. After the staining period, cells were washed three times with Hanks buffer, collected and resuspended in 500 µL culture media. Data were obtained and analyzed using an Accuri C6 flow cytometer (BD Biosciences, Ann Arbour, MI, USA). […]

SH-SY5Y cells [9] = test: Mitochondrial membrane potential (JC-1, microplate reader) in SH-SY5Y cells under H2O2; format: cell-based, human; details: SH-SY5Y exposed to 200 µM H2O2 for 24 h, no compound
Procedure: To know whether β-diketones 6b and 7b will protect the mitochondrial membrane from depolarization under oxidative stress conditions, MMP experiments were carried out with the cationic dye JC-1 (5,5′,6,6′-tetrachloro-1,1′,3,3′-tetraethylbenzimi-dazolylcarbocyanine iodide). JC-1 enters selectively into mitochondria and reversibly change color from red to green as the membrane potential decrease. In healthy cells, JC-1 forms red fluorescent J-aggregates while in apoptotic cells with low MMP, JC-1 remains as monomers with green fluorescence. The ratio of J-aggregates to J-monomers is an indication of healthy non-apoptotic cells.
The fluorescent dye 5,5′,6,6′-tetrachloro-1,1′,3,3′-tetraethylbenzimidazolylcarbocyanine iodide (JC-1) was used for measuring MMP [111]. A decrease in fluorescence intensity represents mitochondrial membrane depolarization. For fluorescence ratio detection under oxidative stress conditions, 96 well plates were seeded with 3 × 10^3 SH-SY5Y cells and after 24 h incubation they were treated with test compound and left out for 24 h. Then, cells were exposed to different H2O2 concentrations for 24 h. After the incubation period, cells were washed twice with Hanks buffer and then stained with 5 µM JC-1 in culture media in dark, in a CO2 incubator at 37 °C for 20 min. At the end of the dye incubation period, cells were washed three times with Hanks buffer and 200 µL of fresh buffer was added. Cells were analyzed with a Varioskan microplate reader. J-aggregates red fluorescence intensity was measured at 535 nm excitation and 595 nm emission wavelength, while excitation at 485 nm and emission 535 nm wavelength was used for J-monomers green fluorescence. Results were expressed as the ratio of fluorescence intensity of J-aggregates to J-monomers. […] JC-1 aggregates show red fluorescence (peak emission at 590 nm) measured in the FL2 channel. Thus, healthy non-apoptotic cells are detected in both FL1 and FL2 channels, while cells with disrupted mitochondrial function show fluorescence in FL1 channel but reduced FL2 intensity.

SH-SY5Y cells [10] = details: read-out: H2O2 lethal dose (EC50; LD50), 24 h incubation, cell viability 50% of the control
Procedure: To test our work hypothesis, neuroprotection studies were carried out with β-diketones 6b and 7b in the SH-SY5Y cell line under oxidative stress conditions.

Compound	IC50 [1]	ABTS-TEAC100 [1]	IC50 at 24 h [2]	FRAP-TEAC100 [3]	FRAP Assay (%) at 100 µM [3]	FRAP Assay (%) at 200 µM [3]	melting point	Cell viability after H2O2 (neuroprotection) (SH-SY5Y cells [4])	solubility at 2 h [5]	Remaining Compound (%) 0 h ([6]; 0 h)	Remaining Compound (%) 6 h ([6]; 6 h)	Remaining Compound (%) 24 h ([6]; 24 h)	Remaining Compound (%) 48 h ([6]; 48 h)	IC50 [7]	Increase in the FLA-1/FLA-2 ratio (SH-SY5Y cells [8])	MMP reduction (SH-SY5Y cells [9])	EC50 (SH-SY5Y cells [10])
O=C(/C=C(O)/C=C/c1ccc(O)c(F)c1F)c1ccccc1 [Compound 7a, (2Z,4E)-5-(2,3-Difluoro-4-hydroxyphenyl)-3-hydroxy-1-phenylpenta-2,4-dien-1-one]	79.6 ± 4.3 µM	0.69	126 ± 8 µM	0.22	14.0%	20.7%	179.3 °C										
COc1cc(/C=C/C(=O)CC(=O)/C=C/c2ccc(O)c(OC)c2)ccc1O [Curcumin, reference compound]			48.8 ± 5.1 µM					slight protection	24 ± 3 µg/mL (≈ 65.1 µM)	100%	55.9 ± 10.6%	42.9 ± 9.0%	38.1 ± 7.4%				
COc1cc(/C=C/C(O)=C/C(=O)c2ccccc2)ccc1O [Compound 1a, (2Z,4E)-3-Hydroxy-5-(4-hydroxy-3-methoxyphenyl)-1-phenylpenta-2,4-dien-1-one]	50.5 ± 2 µM	0.88	104 ± 6.7 µM	0.59	32.2%	55.7%	159.9 °C							42.3 ± 3.4 µM			
OO [Compound H2O2, hydrogen peroxide, reference compound]															2 fold	about 62%	200 µM
